In paper PMC11312998, “Molecular Pro-Apoptotic Activities of Flavanone Derivatives in Cyclodextrin Complexes: New Implications for Anticancer Therapy” (International Journal of Molecular Sciences, 2024):

Key:
[1] = tested on: extrinsic coagulation pathway; assay: Prothrombin time (PT); assay type: biochemical, human; details: 1–100 µmol/L
Experimental: Basic coagulation parameters were determined using Bio-Ksel reagents (Grudziądz, Poland): APTT reagent, calcium chloride, Bio-Ksel PT plus reagent (tromboplastin and solvent) and thrombin (3.0 UNIH/mL) for TT experiments. The methods were calibrated and the coefficient of variation (PT, APTT, TT experiments) was calculated using a calibrator (Bio-Ksel, Grudziadz, Poland), normal plasma (Bio-Ksel, Grudziądz, Poland) and water for injection (Polpharma, Gdańsk, Poland).
Control samples consisting of distilled water and methanol were tested. All methods were validated using Bio-Ksel normal plasma, which was dissolved in water for injection (Polpharma, Gdańsk, Poland). The reference values for each test are as follows: PT: 9.7–13.8 s; INR: 0.9–1.2; APTT: 28.2–42.3 s; TT: 11.0–16.5 s for 3.0 UNIH/mL of thrombin.

[2] = tested on: RBCs; assay: Red blood cells lysis assay; assay type: cell-based, human; details: 24 h
Experimental: The experiments on human blood were performed in accordance with Polish national guidelines, and the study protocols were approved by the Bioethics Committee of the Medical University of Lodz, Poland: approval no (RNN/104/20/KE). The blood samples were obtained from healthy donors at the Blood Donation Centre in Lodz. The procedure for […] for erythrotoxicity studies is given in a previous paper. The influence of the synthesized compounds, together with a reference compound on RBC membrane integrity, was performed by lysis assay, described elsewhere. Briefly, 2% RBC suspension in 0.9% NaCl was incubated at 37 °C for 24 h with the tested compounds at concentrations of 100 µmol/L, 50 µmol/L, 25 µmol/L, 10 µmol/L and 1 µmol/L. The samples were centrifuged at 3000 rpm for 10 min, and the absorbance of the supernatant was measured at 550 nm. […] A sample containing saline solution represented the spontaneous hemolysis of RBCs (control). The experiments were conducted using at least three different biological materials (n = 3). […] Additionally, erythrocyte morphology was evaluated using a phase contrast Opta-Tech inverted microscope at 400× magnification.

[3] = tested on: Ishikawa; assay: Superoxide anion generation, DHE probe; assay type: cell-based, human; details: IC50 concentration, 24 h
Experimental: (§1) The level of superoxide anion (O2^•−) was determined by microplate spectrofluorimetry with dihydroethidium (hydroethidine, DHE) (Life Technologies, Carlsbad, CA, USA), which is the most commonly used fluorogenic probe for monitoring the intracellular production of superoxide anion O2^•− [41]. […] Thanks to this shift, DHE can be used as a sensitive probe for cellular ROS. The reaction between superoxide and DHE generates a highly specific red fluorescent product, 2-hydroxyethidium (2-OH-E^+).
(§2) The cells were seeded in black 96-well fluorometric microplates at a density of 10 × 10^3 cells per well. […] After incubation, the medium was removed, the cell monolayer in the wells was washed twice with HBSS (140 mM NaCl, 5 mM KCl, 0.8 mM MgCl2, 1.8 mM CaCl2, 1 mM Na2HPO4, 10 mM HEPES and 1% glucose) and 50 μL of DHE solution in HBSS was added to each well (final probe concentration 5 μmol/L). Cells were incubated with the probe for 30 min in the dark in an incubator (37 °C), and then fluorescence was measured. The measurement was performed at the following excitation and fluorescence emission wavelengths: λex = 498 nm/λem = 582 nm. Fluorescence measurements were made on a Perkin-Elmer LS-5B spectrofluorometer (MA, USA). Fluorescence intensity values for control cells were arbitrarily set as 100%. The results are presented as percentages of control cell values, calculated relative to the fluorescence intensity of the controls (100%): sample fluorescence was calculated as Δf in relation to the controls.

[4] = tested on: MCF-7; assay: Superoxide anion generation, DHE probe; assay type: cell-based, human; details: IC50 concentration, 24 h
Experimental: as §1, §2

[5] = Isothermal titration calorimetry (ITC) of inclusion complex formation; assay type: physicochemical; details: DMSO, 25 °C
Experimental: Measurements were carried out using a MicroCal VP-ITC100 microcalorimeter equipped with a 1400 μL measurement cell. All titrations were carried out under isothermal conditions at 25 degrees C in DMSO solution, which was used as a solvent. The mixing speed during the measurements was 351 rpm. The 0.2 mM solution of the ligand (3, 3a and 5) located in the measurement cell was titrated with the cyclodextrin solution located in the syringe. Each measurement consisted of 50 injections of cyclodextrin with a volume of 5 uL and a concentration of 5 mM. The interval between individual injections was 300 s. The effect of direct interaction of the ligand with CD was calculated by subtracting the thermal effects of diluting 5 mM cyclodextrin in a pure solvent. The dilution effect of the 0.2 mM ligand solution was negligible. The results obtained were processed in the MicroCall Origin 7 software. Using a single active site model (ITC Tutorial Guide), the stability constant K of the resulting complex, its stoichiometry n and thermodynamic parameters that describe the ongoing process were determined, viz., enthalpy (ΔH), Gibbs free energy (ΔG) and entropy (ΔS).

[6] = concentration range of 1–25 µmol/L
[7] = concentrations of 50 µmol/L and 100 µmol/L

| Structure (SMILES) | prothrombin time (PT), difference compared to controls (in words) [1] | impact on % hemolysis (in words) [2, 6] | impact on % hemolysis (in words) [2, 7] | greater superoxide anion level relative to control (DHE probe) [3] | greater superoxide anion level relative to control (DHE probe) [4] | K (formation constant) ([5]; HP-β-cyclodextrin) | n (stoichiometry) ([5]; HP-β-cyclodextrin) | ΔG ([5]; HP-β-cyclodextrin) | ΔH ([5]; HP-β-cyclodextrin) [kcal/mol] | ΔS ([5]; HP-β-cyclodextrin) [J mol^−1K^−1] | K (formation constant) ([5]; α-cyclodextrin) | n (stoichiometry) ([5]; α-cyclodextrin) | ΔG ([5]; α-cyclodextrin) | ΔH ([5]; α-cyclodextrin) [kcal/mol] | ΔS ([5]; α-cyclodextrin) [J mol^−1K^−1] | K (formation constant) ([5]; β-cyclodextrin) | n (stoichiometry) ([5]; β-cyclodextrin) | ΔG ([5]; β-cyclodextrin) | ΔH ([5]; β-cyclodextrin) [kcal/mol] | ΔS ([5]; β-cyclodextrin) [J mol^−1K^−1] |
| --- | --- | --- | --- | --- | --- | --- | --- | --- | --- | --- | --- | --- | --- | --- | --- | --- | --- | --- | --- | --- |
| COc1cccc(/C=C2/C(=O)c3ccccc3OC2c2ccccc2)c1 (stereo not drawn) [Compound 3] | No statistically significant differences | did not show a statistically significant impact | statistically significant increase in % hemolysis | approximately 20% | approximately 20% | 6.88 × 10^3 ± 430 | 1.03 ± 0.10 | −21,902.2 J mol^−1 | -0.235 ± 0.0191 | 70.2 | 2.30 × 10^3 ± 180 | 0.90 ± 0.13 | −19,188.6 J mol^−1 | -0.092 ± 0.011 | 63.1 | 3.68 × 10^3 ± 230 | 0.99 ± 0.11 | −20,353.7 J mol^−1 | -0.2476 ± 0.021 | 64.8 |
| O=C1/C(=C/c2ccccc2)C(c2ccccc2)Oc2ccccc21 (stereo not drawn) [Compound 5] | No statistically significant differences | did not show a statistically significant impact | statistically significant increase in % hemolysis | ~30% | ~30% | 5.12 × 10^3 ± 410 | 0.93 ± 0.10 | −21,172.4 J mol^−1 | -0.119 ± 0.0151 | 69.3 | 1.39 × 10^3 ± 120 | 0.83 ± 0.17 | −17,940.2 J mol^−1 | -0.049 ± 0.00741 | 59.5 | 2.32 × 10^3 ± 220 | 0.93 ± 0.11 |  | -0.0411 ± 0.012 | 62.5 |
